# Assay results published in ChEMBL document CHEMBL1156161, “Assessing the trypanocidal potential of natural and semi-synthetic diketopiperazines from two deep water marine-derived fungi” (Bioorg Med Chem, 2010).
# pEC50, pIC50: −log10 of the molar value.
# Experiments:
# [1] = Inhibition of Trypanosoma brucei brucei recombinant cathepsin B assessed after 5 mins by spectrofluorimetry
# [2] = Selectivity index, ratio of IC50 for human Jurkat cells to IC50 for Trypanosoma brucei brucei; assay type: toxicity, cell-based; conditions: for selectivity ratio: Jurkat cells, read-out: Ratio IC50; for Ratio IC50: jurkat
# [3] = system: Trypanosoma brucei brucei; test: Antitrypanosomal activity against Trypanosoma brucei brucei 427-221a after 40 hrs by bioluminescence assay; assay type: functional, organism-based; conditions: for pIC50 / pEC50: Trypanosoma brucei, 427-221a, 40 h
# Rhodesain = Rhodesain (Trypanosoma brucei rhodesiense, UniProt Q95PM0); test: Inhibition of […] after 5 mins by spectrofluorimetry
# Sequence of Rhodesain (Q95PM0 whole entry): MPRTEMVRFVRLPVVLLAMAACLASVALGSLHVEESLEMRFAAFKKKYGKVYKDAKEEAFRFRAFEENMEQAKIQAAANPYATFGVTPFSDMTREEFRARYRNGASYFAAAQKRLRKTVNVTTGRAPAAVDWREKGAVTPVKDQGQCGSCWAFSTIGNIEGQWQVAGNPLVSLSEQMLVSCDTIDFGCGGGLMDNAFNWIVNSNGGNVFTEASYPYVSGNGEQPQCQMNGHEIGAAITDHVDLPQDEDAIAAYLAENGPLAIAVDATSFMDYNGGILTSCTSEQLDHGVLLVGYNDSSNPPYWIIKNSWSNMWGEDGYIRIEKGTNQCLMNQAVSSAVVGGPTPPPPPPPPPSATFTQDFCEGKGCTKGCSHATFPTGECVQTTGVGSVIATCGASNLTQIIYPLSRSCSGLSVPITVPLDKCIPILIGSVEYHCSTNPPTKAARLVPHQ
# Macrophage = test: Immunomodulatory activity in macrophage assessed as inhibition of phagocytosis; assay type: functional; conditions: read-out: ED50 (the source's name)
# HeLa = test: Cytotoxicity against human HeLa cells; assay type: functional, cell-based
# Jurkat [4] = test: Cytotoxicity against human Jurkat cells after 40 hrs bioluminescence assay; assay type: cell-based
# HUVEC = test: Cytotoxicity against HUVEC; assay type: cell-based; conditions: Homo sapiens
# [5] = Toxicity in ip dosed ddY mouse; assay type: organism-based; conditions: in vivo
# [6] = Inhibition of PAF
# [7] = Selectivity index, ratio of IC50 for rat L6 cells to IC50 for Trypanosoma brucei brucei
# [8] = system: Trypanosoma brucei rhodesiense; test: Antitrypanosomal activity against Trypanosoma brucei rhodesiense after 40 hrs by bioluminescence assay; assay type: functional
# [9] = Induction of mutagenesis in Salmonella Typhimurium assessed as drug level required by Ames assay; assay type: toxicity; conditions: salmonella enterica subsp. enterica serovar typhimurium
# [10] = Toxicity in ip dosed mouse; assay type: organism-based; conditions: in vivo
# [11] = Induction of mutagenesis in microsomes assessed as drug level required by Ames assay; design: species or system Microsome
# Mus musculus = test: Neurotoxicity in ip dosed Swiss mouse assessed as drug level required for induction of tremor; assay type: toxicity, organism-based; conditions: in vivo
# [12] = Cell cycle arrest in temperature sensitive mouse FT210 cells assessed as accumulation at M phase; assay type: functional, cell-based
# HEK293 = test: Cytotoxicity against HEK293 cells; assay type: cell-based; conditions: Homo sapiens
# [13] = Selectivity index, ratio of EC50 for HEK293 cells to EC50 for Trypanosoma brucei brucei; assay type: toxicity, cell-based; conditions: human, read-out: Ratio EC50
# MCF7 = test: Cytotoxicity against human MCF7 cells; assay type: functional, cell-based
# MDA-MB-468 = test: Cytotoxicity against human MDA-MB-468 cells; assay type: functional, cell-based
# [14] = system: Trypanosoma brucei brucei; test: Antitrypanosomal activity against Trypanosoma brucei brucei at 1.25 ug/ml after 40 hrs by bioluminescence assay relative to control; assay type: functional
# [15] = Inhibition of tubulin polymerization assessed as blockade of microtubule assembly at 250 uM; design: scale not given: the % may be the effect or the level left
# [16] = biological target: Thioredoxin reductase 1, cytoplasmic (Homo sapiens, UniProt Q16881); test: Inhibition of thioredoxin reductase 1
# Sequence of Thioredoxin reductase 1, cytoplasmic (Q16881 whole entry): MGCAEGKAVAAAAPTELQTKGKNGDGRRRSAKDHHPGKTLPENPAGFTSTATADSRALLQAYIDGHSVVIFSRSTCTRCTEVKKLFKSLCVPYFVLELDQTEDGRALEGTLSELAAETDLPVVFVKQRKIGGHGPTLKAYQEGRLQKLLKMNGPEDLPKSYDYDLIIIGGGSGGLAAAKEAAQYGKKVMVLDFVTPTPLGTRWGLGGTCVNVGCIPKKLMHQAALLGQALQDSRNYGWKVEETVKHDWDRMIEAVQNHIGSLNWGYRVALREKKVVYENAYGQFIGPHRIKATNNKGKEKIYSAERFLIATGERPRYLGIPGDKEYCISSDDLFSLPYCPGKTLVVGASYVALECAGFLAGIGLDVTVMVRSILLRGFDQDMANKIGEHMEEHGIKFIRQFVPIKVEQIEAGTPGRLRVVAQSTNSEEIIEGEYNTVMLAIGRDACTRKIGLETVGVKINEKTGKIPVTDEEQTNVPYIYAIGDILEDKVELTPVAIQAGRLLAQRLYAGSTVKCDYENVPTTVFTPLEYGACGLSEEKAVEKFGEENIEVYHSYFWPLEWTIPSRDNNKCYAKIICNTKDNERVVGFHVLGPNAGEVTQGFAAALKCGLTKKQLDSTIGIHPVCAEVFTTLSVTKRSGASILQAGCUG
# A549 = test: Cytotoxicity against human A549 cells; assay type: functional, cell-based
# [17] = Inhibition of Su(var)3-9
# Plasmodium falciparum = test: Antiparasitic activity against chloroquine-resistant Plasmodium falciparum K1; assay type: functional, organism-based
# [18] = Cytotoxicity against chinook salmon CHSE-214 cells; assay type: cell-based; conditions: Oncorhynchus tshawytscha
# Tetrahymena pyriformis = test: Antiprotozoal activity against Tetrahymena pyriformis; assay type: functional, organism-based
# Homo sapiens = organism: Homo sapiens; test: Induction of apoptosis in human HSC assessed as required active concentration; assay type: functional
# [19] = Cytotoxicity against rainbow trout RTG2 cells; assay type: cell-based; conditions: Oncorhynchus mykiss
# [20] = biological target: Mycothiol S-conjugate amidase (Mycobacterium tuberculosis, UniProt P9WJN1); test: Inhibition of Mycobacterium tuberculosis mycothiol-S-conjugate amidase
# Sequence of Mycothiol S-conjugate amidase (P9WJN1 whole entry): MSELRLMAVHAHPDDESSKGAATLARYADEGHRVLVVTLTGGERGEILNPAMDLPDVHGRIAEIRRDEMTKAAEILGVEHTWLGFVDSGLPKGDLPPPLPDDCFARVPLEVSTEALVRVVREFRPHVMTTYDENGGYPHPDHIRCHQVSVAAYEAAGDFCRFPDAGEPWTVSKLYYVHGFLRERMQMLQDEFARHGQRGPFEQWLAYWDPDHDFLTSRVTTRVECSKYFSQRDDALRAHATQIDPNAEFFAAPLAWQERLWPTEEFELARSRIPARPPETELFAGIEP
# [21] = Inhibition of NADPH oxidase
# Pythium aphanidermatum = test: Antimicrobial activity against Pythium aphanidermatum; assay type: functional; conditions: read-out: ED50 (the source's name)
# [22] = Cytotoxicity against rainbow trout RTS11 cells; assay type: cell-based; conditions: Oncorhynchus mykiss
# [23] = system: Globisporangium debaryanum; test: Antimicrobial activity against Pythium debaryanum; assay type: functional; conditions: read-out: ED50 (the source's name)
# Athelia rolfsii = test: Antimicrobial activity against Sclerotium rolfsii; assay type: functional; conditions: Agroathelia rolfsii; read-out: ED50 (the source's name)
# Macrophomina phaseolina [24] = test: Antimicrobial activity against Macrophomina phaseolina; assay type: functional; conditions: read-out: ED50 (the source's name)
# Rhizoctonia solani = test: Antimicrobial activity against Rhizoctonia solani; assay type: functional; conditions: read-out: ED50 (the source's name)
# [25] = Ciliostatic activity against human respiratory epithelium assessed as required active concentration; assay type: functional
# Macrophomina phaseolina [26] = test: Antimicrobial activity against Rhizoctonia bataticola; assay type: functional; conditions: read-out: ED50 (the source's name)
# jurkat [27] = test: Activation of NF-kappaB in human jurkat cells assessed as active concentration required; assay type: cell-based
# [28] = Inhibition of chymotrypsin-like activity of 20S proteasome activity
# [29] = biological target: Acetolactate synthase catalytic subunit, mitochondrial (Saccharomyces cerevisiae S288c, UniProt P07342); test: Inhibition of Saccharomyces cerevisiae acetolactate synthase
# Sequence of Acetolactate synthase catalytic subunit, mitochondrial (P07342 whole entry): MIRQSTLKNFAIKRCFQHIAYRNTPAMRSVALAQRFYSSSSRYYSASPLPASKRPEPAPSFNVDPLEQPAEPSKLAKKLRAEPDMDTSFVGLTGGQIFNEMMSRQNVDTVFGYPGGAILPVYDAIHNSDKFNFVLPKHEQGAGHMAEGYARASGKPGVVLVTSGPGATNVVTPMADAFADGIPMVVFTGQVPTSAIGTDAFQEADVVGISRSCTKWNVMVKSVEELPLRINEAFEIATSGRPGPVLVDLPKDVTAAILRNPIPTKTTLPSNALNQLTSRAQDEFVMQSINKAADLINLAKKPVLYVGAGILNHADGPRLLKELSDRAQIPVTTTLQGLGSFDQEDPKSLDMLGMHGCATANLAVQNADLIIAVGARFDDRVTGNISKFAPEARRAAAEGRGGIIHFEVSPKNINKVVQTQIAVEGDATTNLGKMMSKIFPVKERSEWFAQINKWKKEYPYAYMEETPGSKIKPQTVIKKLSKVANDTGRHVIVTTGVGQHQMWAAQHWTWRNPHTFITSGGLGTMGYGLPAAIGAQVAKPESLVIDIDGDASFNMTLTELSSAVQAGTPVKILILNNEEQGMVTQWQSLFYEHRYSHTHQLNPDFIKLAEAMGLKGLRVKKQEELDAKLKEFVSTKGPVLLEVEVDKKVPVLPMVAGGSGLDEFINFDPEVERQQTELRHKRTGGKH
# [30] = Immunosuppression of mouse spleen lymphocytes; assay type: functional, tissue-based; conditions: lymphocyte
compound,measurement,setting,value
CS[C@]1(CO)C(=O)N2[C@H]3C(=CC=C[C@@H]3O)C[C@@]2(SC)C(=O)N1C [BIS(DETHIO)BIS(METHYLTHIO)GLIOTOXIN],pIC50,[1],< 4.30
same,selectivity ratio,[2],3.5
same,pIC50,[3],4.40
same,pIC50,Rhodesain,< 4.30
same,pEC50,Macrophage,< 5.00
same,pIC50,HeLa,< 5.55
same,pIC50,Jurkat [4],3.85
same,pIC50,HUVEC,5.95
same,LD50,[5],> 500 mg/kg
same,pIC50,[6],5.08
CS[C@]1(COC(C)=O)C(=O)N2[C@H]3C(=CC=C[C@@H]3O)C[C@@]2(SC)C(=O)N1C,pIC50,[3],< 4.30
Nc1nc(N)nc(Nc2ccc([As]3SCC(CO)S3)cc2)n1 (stereo unspecified) [MELARSOPROL],selectivity ratio,[7],1940
same,pIC50,[3],8.40
C/C(=C\Cc1c(O)c(Cl)c(C)c(C=O)c1O)CC/C=C(\C)[C@@H]1CC(=O)C(C)(C)O1 [ASCOFURANONE],IC100,[3],0.03 µM
CS[C@]1(CO)C(=O)N2[C@H]3C(=CC=C[C@@H]3OC(C)=O)C[C@@]2(SC)C(=O)N1C,pIC50,[1],< 4.30
same,Ratio IC50,[2],19.2 ratio
same,pIC50,[3],5.19
same,pIC50,Rhodesain,4.89
same,pIC50,Jurkat [4],3.90
C/C=C(\C)[C@@H]1C=C[C@@H]2C[C@H](C)C[C@H](C)C2[C@@H]1C(=O)C1=CC(C)(OCCCC)NC1=O (stereo partly specified) [ASCOSALIPYRROLIDINONE A],MIC,[8],30 µg/mL
CS[C@]1(CO)C(=O)N2c3c(O)cccc3C[C@@]2(SC)C(=O)N1C [DEHYDROBIS(METHYLTHIO)GLIOTOXIN],pIC50,[1],< 4.30
same,Ratio IC50,[2],16.6 ratio
same,pIC50,[3],5.07
same,pIC50,Rhodesain,4.71
same,pIC50,Jurkat [4],3.85
same,pIC50,[6],4.77
COc1ccc2c3c4n(c2c1)[C@H](C=C(C)C)OOC(C)(C)C[C@@H]4N1C(=O)[C@@H]2CCCN2C(=O)[C@]1(O)[C@H]3O [VERRUCULOGEN],pIC50,[1],< 4.30
same,Activity,[9],1 µM
same,selectivity ratio,[2],7.5
same,pIC50,[3],4.89
same,pIC50,Rhodesain,4.35
same,LD50,[10],2.4 mg/kg
same,Activity,[11],1 µM
same,Activity,Mus musculus,0.78 mg/kg
same,MIC,[12],12.2 µM
same,pIC50,Jurkat [4],4.01
COc1ccc2c(c1)N(C)C(=O)[C@@]21C=C2C(=O)N3CCC[C@H]3C(=O)N2[C@H]1C=C(C)C [N-METHYL-6-METHOXYSPIROTRYPROSTATIN B],pIC50,[3],< 4.30
COc1ccc2c(c1)NC(=O)[C@@]21C=C2C(=O)N3CCC[C@H]3C(=O)N2[C@H]1C=C(C)C [SPIROTRYPROSTATIN B],pIC50,[1],< 4.30
same,Ratio IC50,[2],3.7 ratio
same,pIC50,[3],5.24
same,pIC50,Rhodesain,< 4.30
same,pIC50,Jurkat [4],4.68
Cc1ccc(/C(=N\NC(N)=S)c2cc(C(F)(F)F)cc(C(F)(F)F)c2)cc1 [THIOSEMICARBAZONE STANDARD],pEC50,HEK293,4.60
same,pIC50,[1],4.82
same,pEC50,[3],5.89
same,pIC50,Rhodesain,7.36
same,selectivity ratio,[13],19
"CS[C@]1(C)NC(=O)[C@](Cc2c[nH]c3ccccc23)(SC)NC1=O [3,6 BISMETHYL(THIOCYCLO)ALANYLTRYPTOPHYL]",pIC50,[3],< 4.30
COc1ccc2c(c1)NC(=O)[C@@]21C[C@H]2C(=O)N3CCC[C@H]3C(=O)N2[C@H]1C=C(C)C [SPIROTRYPROSTATIN A],pIC50,MCF7,< 3.52
same,pIC50,MDA-MB-468,3.96
same,pIC50,[3],< 4.30
CN1C(=O)[C@]23SS[C@@]1(C)C(=O)N2[C@H]1Nc2ccccc2[C@@]1([C@@]12c4ccccc4N[C@@H]1N1C(=O)[C@]4(CO)SS[C@]1(C(=O)N4C)[C@H]2O)[C@@H]3O [VERTICILLIN B],pIC50,[1],< 4.30
same,pIC50,[3],8.15
same,Activity,[14],109%
same,pIC50,Rhodesain,< 4.30
same,pEC50,HeLa; read-out: ED50 (the source's name),6.55
same,pIC50,Jurkat [4],> 6.22
CS[C@]1(COC(C)=O)C(=O)N2[C@H]3C(=CC=C[C@@H]3OC(C)=O)C[C@@]2(SC)C(=O)N1C [DIACETYLBIS(METHYLTHIO)GLIOTOXIN],pIC50,[1],< 4.30
same,Ratio IC50,[2],1.6 ratio
same,pIC50,[3],4.45
same,pIC50,Rhodesain,< 4.30
same,pIC50,Jurkat [4],4.25
COc1ccc2c(c1)N(C)C(=O)[C@@]21C[C@H]2C(=O)N3CCC[C@H]3C(=O)N2[C@H]1C=C(C)C [N-METHYLSPIROTRYPROSTATIN A],pIC50,[3],< 4.30
COc1ccc2c3c([nH]c2c1)[C@H](C=C(C)C)N1C[C@@H]2CCCN2C[C@@]1(O)[C@H]3O [CYCLOTRYPROSTATIN A],pIC50,[3],< 4.30
same,Activity,[15],66.4%
CN1C(=O)[C@@]23C[C@]4([C@]56C[C@@]78SS[C@@](CO)(C(=O)N7[C@H]5Nc5ccccc56)N(C)C8=O)c5ccccc5N[C@@H]4N2C(=O)[C@]1(CO)SS3 [CHAETOCIN],pIC50,[1],< 4.30
same,pIC50,[3],8.70
same,pIC50,[16],5.34
same,pIC50,Rhodesain,< 4.30
same,pIC50,A549,> 7.60
same,pIC50,[17],6.22
same,pIC50,Jurkat [4],> 6.22
CN1C(=O)[C@]23CC4=CC=C[C@H](O)[C@H]4N2C(=O)[C@@]1(CO)SS3 [GLIOTOXIN],pIC50,Plasmodium falciparum,5.44
same,pEC50,[18],5.78
same,pEC50,Tetrahymena pyriformis,6.42
same,Activity,Homo sapiens,0.3 µM
same,pEC50,[19],5.70
same,pIC50,[1],6.30
same,pIC50,[3],8.00
same,pIC50,[20],4.30
same,pIC50,[21],5.05
same,pEC50,Pythium aphanidermatum,4.43
same,pEC50,[22],5.87
same,pIC50,Rhodesain,< 4.30
same,pEC50,Macrophage,6.98
same,pEC50,[23],4.05
same,pEC50,Athelia rolfsii,5.19
same,pEC50,Macrophomina phaseolina [24],5.27
same,pIC50,A549,8.52
same,pIC50,HeLa,5.61
same,pEC50,Rhizoctonia solani,5.01
same,pIC50,Jurkat [4],> 6.00
same,Activity,[25],30.7 µM
same,pIC50,HUVEC,6.91
same,pEC50,Macrophomina phaseolina [26],6.05
same,Activity,jurkat [27],300 nM
same,LD50,[5],17.9 mg/kg
same,pIC50,[28],5.00
same,pIC50,[6],4.03
same,pIC50,[29],6.70
CS[C@]1(Cc2c[nH]c3ccccc23)NC(=O)[C@](CO)(SC)N(C)C1=O [CHETOSEMINUDIN B],pIC50,[1],< 4.30
same,pIC50,[30],4.62
same,Ratio IC50,[2],16.1 ratio
same,pIC50,[3],5.23
same,pIC50,[20],4.15
same,pIC50,Rhodesain,< 4.30
same,pIC50,Jurkat [4],4.02
N=C(N)c1ccc(OCCCCCOc2ccc(C(=N)N)cc2)cc1 [PENTAMIDINE],pIC50,[3],8.15
N#Cc1nc(NCc2ccc(Cl)c(Cl)c2)c2ncn(CCCO)c2n1,pEC50,HEK293,4.60
same,pEC50,[3],6.96
same,selectivity ratio,[13],227
